Laboratory results from patent publication US10092613B2 (NATUREX, S.A., priority 2008, dated 2018).
“And” between values parts separate entries of the source, which are not always exact repeats. Equal values may be shown once. Read-outs that look alike come from different tables or passages of the source.

How the values were obtained:
[1] = Plasma pharmacokinetics of CGA and metabolites after 400 mg green coffee extract, ten volunteers; assay type: in vivo, human; conditions: for AUC / Cmax / Tmax: plasma, 400 mg green coffee extract oral, mean ± SD, n = 10; for molar ratio 3,5-diCQA:4,5-diCQA:3,4-diCQA in plasma / molar ratio 5-CQA:4-CQA:3-CQA in plasma: ratios of AUC in plasma; for contribution to total phenolics in plasma: after green coffee extract consumption; for contribution to AUC of total phenolic compounds in plasma: mean values of plasma AUC
Text: In a further phase of the study, ten non-smoker volunteers (22-55 y), five male and five female, were recruited. […] They were asked to eat only animal foods, refined cereal foods and artificial beverages. […] Blood samples were collected into heparin-containing tubes. Baseline blood aliquots were used to determine hematocrit and hemoglobin levels by standard methods. Plasma samples were obtained by centrifugation of the blood samples immediately after being drawn. Urine samples were also collected at baseline interval (minus 2-0 h) and at intervals of 0-2 h; 2-4 h; 4-6 h and 6-8 h after coffee consumption into appropriate plastic containers. Total urine volume was measured for each collection period. Plasma and urine aliquots for determination of CGA were acidified with HCl and kept frozen in liquid nitrogen until analyses. Urine aliquots for determination of creatinine were acidified with HCl and kept at −20° C. until analyses.
(§1) Results of CGA and phenolic acids in urine were normalized by creatinine excretion.

[2] = molecular target: T1, hepatic Glc-6-Pase system (Homo sapiens, UniProt O43826); assay: Glc-6-Pase hydrolysis in intact human liver microsomes (phosphate release); assay type: biochemical; conditions: for Percentage inhibition of G6Pase: each compound at its naturally occurring concentration in 0.6 mM extract, 2 mM substrate; for Contribution to Glc-6-Pase system inhibition by the green coffee extract: inhibition of compound divided by inhibition of 0.6 mM total CGAs from the extract
T1 construct: Glc-6-Pase hydrolysis in intact human liver microsomes; tissue BD Biosciences; host or cells: pooled human liver microsomes, intact
T1 sequence (O43826 1-429): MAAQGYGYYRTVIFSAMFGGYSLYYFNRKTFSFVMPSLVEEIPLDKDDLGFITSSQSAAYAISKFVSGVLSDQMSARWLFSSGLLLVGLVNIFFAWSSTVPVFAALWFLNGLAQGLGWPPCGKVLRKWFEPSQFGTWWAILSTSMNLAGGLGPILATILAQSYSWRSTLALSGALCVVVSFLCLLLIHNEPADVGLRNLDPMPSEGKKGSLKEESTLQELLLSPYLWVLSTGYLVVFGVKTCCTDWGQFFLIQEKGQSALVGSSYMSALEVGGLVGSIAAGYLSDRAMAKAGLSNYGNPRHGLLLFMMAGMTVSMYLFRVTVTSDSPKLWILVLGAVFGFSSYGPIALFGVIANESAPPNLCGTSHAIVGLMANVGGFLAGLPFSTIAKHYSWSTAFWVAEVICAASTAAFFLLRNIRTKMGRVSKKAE
Protocol: A secondary purpose of Example 8 was to determine the inhibitory effects of a series of structurally-related compounds in the extract, such as caffeoylquinic acids and caffeoylferuloylquinic acids. Example 8 tested whether the extract could inhibit the hepatic Glc-6-Pase system by measuring enzymatic activity in human liver microsomes. These experiments were conducted with or without the extract at final CGA concentrations of 0.2, 0.4 and 0.6 mM. The effect of the extract on Glc-6-Pase activity was tested as a function of […] substrate concentration (2-10 mM).
Measurement of Glc-6-Pase Activity in Microsomes: Microsomal Glc-6-Pase activity was measured on the basis of the rate of release of phosphate under the assay conditions that were described by Wallert et al., Kinetic analysis of glucose-6-phosphatase: an investigative approach to carbohydrate metabolism and kinetics. Biochem. Mol. Biol. Educ. 2001, 29, 199-203. The enzyme assays were performed at 37° C. in a final volume of […] containing 100 mM cacodylic acid, pH 6.5 and concentrations of the substrate […] ranging from 2 to 10 mM.
The reaction was started by adding intact microsomes and was stopped with the addition of 3.2 mL of colorimetric reagent [9 volumes of molybdate (0.42% ammonium molybdate in 1 N H2SO4), 2 volumes of 5% SDS and 1 volume of 10% ascorbic acid, freshly prepared and stored on ice for a maximum of 6 h]. All samples were incubated for 30 minutes at 45° C., and the absorbance of the phosphate-molybdate complex was measured at 820 nm.
Microsomal intactness was quantified by measuring Man-6-Pase activity. Anion, W J. Measurement of intactness of rat liver endoplasmic reticulum. Methods Enzymol. 1989, 174, 58-67. In a preliminary study, Glc-6-Pase activity in intact human liver microsomes was determined on the basis of microsomal protein concentration and incubation time to obtain optimal experimental conditions, that is, 100 μg of microsomal proteins and 5 minutes of incubation (data not shown). Quantification was performed at optimal wavelengths (330 nm) for the CGAs during chromatographic separation. Samples were filtered (0.45 μm), and 2 μL was injected directly. The standard deviation for three analyses of the same sample was <5% for all compounds.
Preparation of Test Compounds: Stock solutions of test compounds were prepared in ultrapure water (pH 6.5) and diluted with assay reagent to the final concentrations.
Enzymatic activity was expressed as micromoles of phosphate released per minute per milligram of protein. Results were expressed as means±standard deviation (SD) of three independent experiments. Percentage of inhibition of Glc-6 Pase system activity was calculated by dividing the initial rate of reaction in microsomes that were treated with individual compounds by the initial rate of reaction in untreated microsomes. […] Statistical analysis was performed using an ANOVA test followed by a post hoc Tukey test under a normality assumption (Shapiro Wilk) or Kruskall Wallis nonparametric test followed by Bonferroni adjusted Mann-Whitney test otherwise; p<0.05 was considered to be significant. […]

[3] = Urinary excretion of CGA and metabolites after 400 mg green coffee extract, ten volunteers; assay type: in vivo, human
Protocol: In a further phase of the study, ten non-smoker volunteers (22-55 y), five male and five female, were recruited. Subjects were instructed to avoid consumption of phenolic-containing foods during the 48 h prior to the study. They were asked to eat only animal foods, refined cereal foods and artificial beverages. On the day of the study, after 10-12 h overnight fasting, an I.V. catheter was inserted into the antecubital vein and a baseline heparinized blood sample was obtained. […] Blood samples were collected into heparin-containing tubes. Baseline blood aliquots were used to determine hematocrit and hemoglobin levels by standard methods. Plasma samples were obtained by centrifugation of the blood samples immediately after being drawn. Urine samples were also collected at baseline interval (minus 2-0 h) and at intervals of 0-2 h; 2-4 h; 4-6 h and 6-8 h after coffee consumption into appropriate plastic containers. Total urine volume was measured for each collection period. Plasma and urine aliquots for determination of CGA were acidified with HCl and kept frozen in liquid nitrogen until analyses. Urine aliquots for determination of creatinine were acidified with HCl and kept at −20° C. until analyses.
as §1

Glc-6-Pase [4] = molecular target: T2, Glc-6-Pase (Rattus norvegicus, UniProt P43428); conditions: fully disrupted microsomes; cited from earlier work
T2 construct: host or cells: rat microsomes (liver)
T2 sequence (P43428 1-357): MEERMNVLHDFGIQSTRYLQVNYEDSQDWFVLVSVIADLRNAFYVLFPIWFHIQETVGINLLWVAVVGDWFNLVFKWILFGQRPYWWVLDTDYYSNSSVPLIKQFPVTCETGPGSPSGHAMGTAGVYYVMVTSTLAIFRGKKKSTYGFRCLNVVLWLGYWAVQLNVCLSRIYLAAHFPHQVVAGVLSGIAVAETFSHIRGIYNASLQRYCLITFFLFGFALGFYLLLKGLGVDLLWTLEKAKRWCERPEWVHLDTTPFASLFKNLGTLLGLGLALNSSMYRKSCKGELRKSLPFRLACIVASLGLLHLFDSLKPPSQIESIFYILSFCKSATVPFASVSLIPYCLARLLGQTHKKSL

Glc-6-Pase [5] = conditions: intact rat microsomes; cited from earlier work
[6] = both sexes, human, po, 400 mg, read-out: AUC
[7] = both sexes, human, po, 400 mg, read-out: Tmax

SMILES: O=C(C=Cc1ccc(O)c(O)c1)OC1CC(O)(C(=O)O)CC(O)C1OC(=O)C=Cc1ccc(O)c(O)c1 (stereo not shown) [4,5-diCQA, 4,5-dicaffeoylquinic acid]
- AUC [1]: 6.8 ± 5.7 µM·h
- Cmax [1]: 2500 ± 3000 nM
- Tmax [1]: 3.3 ± 2.5 h
- molar ratio 3,5-diCQA:4,5-diCQA:3,4-diCQA in plasma [1]: 1.4
- Percentage inhibition of G6Pase [2]: 13% and 12.8 ± 2.6%
- Contribution to Glc-6-Pase system inhibition by the green coffee extract [2]: 35%

SMILES: O=C(O)/C=C/c1ccc(O)cc1 [p-coumaric acid]
- contribution to total phenolics in plasma [1]: 1.4%
- Cmax ([1]; both sexes, human, po, 400 mg): 400 ± 30 nM
- AUC [1, 6]: 0.8 ± 0.2 µM·h
- Tmax [1, 7]: 2.5 ± 1.8 h

SMILES: O=C(C=Cc1ccc(O)c(O)c1)OC1CC(O)(C(=O)O)CC(O)C1O (stereo not shown) [3-CQA, 3-caffeoylquinic acid]
- contribution to AUC of total phenolic compounds in plasma [1]: 5.2%
- AUC [1]: 3.0 ± 4.5 µM·h
- Cmax [1]: 900 ± 1400 nM
- molar ratio 5-CQA:4-CQA:3-CQA in plasma [1]: 1.0
- Contribution to Glc-6-Pase system inhibition by the green coffee extract [2]: 0%

SMILES: O=C(C=Cc1ccc(O)c(O)c1)OC1CC(O)(C(=O)O)CC(O)C1O (stereo not shown) [5-CQA, 5-caffeoylquinic acid]
- contribution to AUC of total phenolic compounds in plasma [1]: 31.3%
- AUC [1]: 17.9 ± 15.3 µM·h
- Cmax [1]: 5900 ± 4200 nM
- Tmax [1]: 3.3 ± 2.4 h
- molar ratio 5-CQA:4-CQA:3-CQA in plasma [1]: 6.0
- content in baseline urine, variation among the subjects ([3]; both, human, in vivo): up to 0.35 μmol
- inhibition of Glc-6-Pase (Glc-6-Pase [4]): no effect
- inhibition of Glc-6-Pase (Glc-6-Pase [5]): inhibits Glc-6-Pase
- Percentage inhibition of G6Pase [2]: 9.2 ± 1.4%
- Contribution to Glc-6-Pase system inhibition by the green coffee extract [2]: 25%

SMILES: O=C(O)c1ccccc1 [benzoic acid]
- identification in urine ([3]; before or after the extract consumption): not identified

SMILES: O=C(C=Cc1ccc(O)c(O)c1)OC1CC(O)(C(=O)O)CC(OC(=O)C=Cc2ccc(O)c(O)c2)C1O (stereo not shown) [3,5-diCQA, 3,5-dicaffeoylquinic acid]
- Cmax ([1]; both sexes, human, po, 400 mg): 2700 ± 2700 nM
- AUC [1, 6]: 8.7 ± 8.3 µM·h
- Tmax [1, 7]: 3.2 ± 2.5 h
- molar ratio 3,5-diCQA:4,5-diCQA:3,4-diCQA in plasma [1]: 1.7
- Contribution to Glc-6-Pase system inhibition by the green coffee extract [2]: 0%

SMILES: COc1ccc(/C=C/C(=O)O)cc1O [Isoferulic acid]
- contribution to total phenolics in plasma [1]: 6.1%
- Cmax ([1]; both sexes, human, po, 400 mg): 900 ± 200 nM
- AUC [1, 6]: 3.5 ± 1.9 µM·h
- Tmax [1, 7]: 2.9 ± 1.8 h

SMILES: O=C(O)CNC(=O)c1ccccc1 [hippuric acid]
- identification in urine ([3]; human, in vivo): not identified

SMILES: O=C(C=Cc1ccc(O)c(O)c1)OC1CC(O)(C(=O)O)CC(O)C1OC(=O)C=Cc1ccc(O)c(O)c1 (stereo not shown) [3,4-diCQA, 3,4-dicaffeoylquinic acid]
- Cmax ([1]; both sexes, human, po, 400 mg): 1500 ± 1600 nM
- AUC [1, 6]: 5 ± 4.9 µM·h
- Tmax [1, 7]: 2.6 ± 1.8 h
- molar ratio 3,5-diCQA:4,5-diCQA:3,4-diCQA in plasma [1]: 1.0
- Percentage inhibition of G6Pase [2]: 6.9 ± 4.3%
- Contribution to Glc-6-Pase system inhibition by the green coffee extract [2]: 19%

SMILES: COc1cc(/C=C/C(=O)O)ccc1O [Ferulic acid]
- contribution to total phenolics in plasma [1]: 6.2%
- Cmax ([1]; both sexes, human, po, 400 mg): 800 ± 300 nM
- AUC [1, 6]: 3.6 ± 1.5 µM·h
- Tmax [1, 7]: 2.9 ± 1.8 h

SMILES: O=C(O)c1ccc(O)c(O)c1 [Protocatechuic acid]
- identification in urine ([3]; human, in vivo): not identified

SMILES: O=C(O)c1cc(O)c(O)c(O)c1 [Gallic Acid]
- total urinary excretion ([3]; subject 1, 0-8 h after consumption): 43.47 µmol
- total urinary excretion ([3]; subject 1, Baseline): 9.24 µmol
- total urinary excretion ([3]; subject 2, 0-8 h after consumption): 18.67 µmol
- total urinary excretion ([3]; subject 2, Baseline): 3.55 µmol
- total urinary excretion ([3]; subject 3, 0-8 h after consumption): 9.41 µmol
- total urinary excretion ([3]; subject 3, Baseline): 1.86 µmol
- total urinary excretion ([3]; subject 4, 0-8 h after consumption): 7.98 µmol
- total urinary excretion ([3]; subject 4, Baseline): 0.70 µmol
- total urinary excretion ([3]; subject 5, 0-8 h after consumption): 25.45 µmol
- total urinary excretion ([3]; subject 5, Baseline): 10.19 µmol
- total urinary excretion ([3]; subject 6, Baseline): 10.57 µmol
- total urinary excretion ([3]; subject 7, 0-8 h after consumption): 14.03 µmol
- total urinary excretion ([3]; subject 7, Baseline): 0.25 µmol
- total urinary excretion ([3]; subject 8, 0-8 h after consumption): 68.21 µmol
- total urinary excretion ([3]; subject 8, Baseline): 6.79 µmol
- total urinary excretion ([3]; subject 9, 0-8 h after consumption): 57.69 µmol
- total urinary excretion ([3]; subject 9, Baseline): 1.68 µmol
- total urinary excretion ([3]; subject 10, 0-8 h after consumption): 112.22 µmol
- total urinary excretion ([3]; subject 10, Baseline): 25.25 µmol

SMILES: COc1cc(CCC(=O)O)ccc1O [dihydroferulic acid]
- identification in urine ([3]; human, in vivo): not identified

SMILES: O=C(C=Cc1ccc(O)c(O)c1)OC1C(O)CC(O)(C(=O)O)CC1O (stereo not shown) [4-CQA, 4-caffeoylquinic acid]
- Cmax ([1]; both sexes, human, po, 400 mg): 1400 ± 1100 nM
- AUC [1, 6]: 4.3 ± 5.4 µM·h
- Tmax [1, 7]: 3.6 ± 2.2 h
- contribution to AUC of total phenolic compounds in plasma [1]: 7.5%
- molar ratio 5-CQA:4-CQA:3-CQA in plasma [1]: 1.4
- total urinary excretion ([3]; human, in vivo): 0.04 µmol
- Percentage inhibition of G6Pase [2]: 14% and 14.4 ± 1.2%
- Contribution to Glc-6-Pase system inhibition by the green coffee extract [2]: 40%

SMILES: O=C(O)/C=C/c1ccc(O)c(O)c1 [Caffeic acid]
- contribution to total phenolics in plasma [1]: 6.6%
- Cmax ([1]; both sexes, human, po, 400 mg): 1100 ± 900 nM
- AUC [1, 6]: 3.8 ± 3.2 µM·h
- Tmax [1, 7]: 3.6 ± 2.1 h
